Legend:
Assay type in all cases: cell-based
SK-MEL-2 (melanoma) = experiment: MTS cell viability assay, SK-MEL-2
Method: (§1) Cells were plated, the evening before treatment, for each treatment on 96-well plates (1×10^4 cells/well) in 100 μL volume per well. Analog solutions were prepared by diluting each test compound in DSMO (10 mM) with the appropriate cell growth media for each individual cell line, or in “Universal Media” if several cell lines were to be assayed in parallel, immediately prior to cell treatment. Universal Media consisted of 5 mL sodium pyruvate (100× liquid stock, MediaTech), 5 mL glucose (100×, 45% liquid stock, MediaTech), 5 mL Penicillin/Streptomycin (100× liquid stock, MediaTech), 10 mL sodium bicarbonate (50× liquid stock, MediaTech), 25 mL Fetal Calf Serum, 1.25 mL insulin (4 mg/mL, Gibco) and […] RPMI media with 2 mM L-glutamine for a total volume of 500 mL.
(§2) Cells were treated by aspirating plating media from each well and adding 80 μL of betulinic acid (control) or each analog solution in serial dilutions to the adherent cells. All treatments were performed in triplicate. Growth media (80 μL) was added to 3 blank wells (no cells) to measure background from the growth media. Growth media alone (no DMSO or test compound) was added to 3 wells containing cells to measure the baseline MTS activity. Vehicle (DMSO) control in serial dilutions, added to cells, was also included to monitor basal toxicity from DMSO. Cells were incubated at 37° C. for 72 h, or 120 h for the OVCAR cell lines. MTS reagent (per 96-well plate) were prepared by combining 2 mL of MTS working solution (Cell Titer AQueous Non-Radioactive Cell Proliferation Assay, Promega, cat#G1112), 100 μL of 0.92 mg/mL phenazine methosulfate/Dulbecco's PBS and 2.1 mL growth media. MTS reagent (40 μL) were added to each well and incubated at 37° C. for 1.5 to 4 h. Plates were gently shaken by hand until solution in each well appeared homogenous. Absorbances at 490 nm were measured on a Wallac Victor II plate reader at multiple time points following the addition of MTS reagent for each plate. Triplicate absorbance (490 nm) measurements were averaged following background (no cell) subtraction for each drug concentration. Percent Cell Viability was calculated for each drug concentration using the following equation:
(§3) {[Absorbance(analog treated)]/[Absorbance(DMSO treated)]}×100%
(§4) Cytotoxicity dose response for the triterpenoid derivatives synthesized in SK-MEL-2 (melanoma), A-375 (melanoma), Daoy (glioblastoma), LN-229 (glioblastoma), OVCAR-3 (ovarian carcinoma), HT-29 (colon carcinoma), MCF-7 (breast carcinoma) cell lines using the standard MTS assay is summarized in Table 1. In Table 1, compounds 22a-d and compounds 23a-c refer to structures 22 and 23 in Scheme 5, respectively. Compounds 24aa-an and 24ba-bq refer to structure 24 in Scheme 6. Compounds 26a-e refer to structure 26 in Scheme 6. Compounds 36a-c refer to structure 36 in Scheme 10.

Daoy = experiment: MTS cell viability assay, Daoy; details: cells incubated 72 h
Method: as §1, §2, §3, §4

A-375 (melanoma) = experiment: MTS cell viability assay, A-375
Method: as §1, §2, §3, §4

MCF-7 (breast carcinoma) = experiment: MTS cell viability assay, MCF-7
Method: as §1, §2, §3, §4

LN-229 (glioblastoma) = experiment: MTS cell viability assay, LN-229
Method: as §1, §2, §3, §4

HT-29 (colon carcinoma) = experiment: MTS cell viability assay, HT-29
Method: as §1, §2, §3, §4

[1] = Homo sapiens, A-375, cells incubated 72 h
[2] = Homo sapiens, SK-MEL-2, cells incubated 72 h
[3] = Homo sapiens, MCF7, cells incubated 72 h
[4] = Homo sapiens, LN-229, cells incubated 72 h
[5] = Homo sapiens, HT-29, cells incubated 72 h

Compound | IC50 (SK-MEL-2 (melanoma); cells incubated 72 h) [µM] | IC50 (Daoy) [µM] | IC50 (SK-MEL-2 (melanoma); [2]) [µM] | IC50 (Daoy; Homo sapiens, Daoy) [µM] | further results
C=C(CNCCO)[C@@H]1CC[C@]2(COC3CCCCO3)CC[C@]3(C)[C@H](CC[C@@H]4[C@@]5(C)CCC(NCC(=O)OC)C(C)(C)[C@@H]5CC[C@]43C)[C@@H]12 (some centres unmarked) [Compound 24bd] | 16 | 16 | – | – | –
C=C(CNCCO)[C@@H]1CC[C@]2(CO)CC[C@]3(C)[C@H](CC[C@@H]4[C@@]5(C)CCC(NCCc6ccc(O)cc6)C(C)(C)[C@@H]5CC[C@]43C)[C@@H]12 (some centres unmarked) [Compound 24bf] | 5 | 1 | – | – | IC50 (A-375 (melanoma); cells incubated 72 h): 2 µM; IC50 (MCF-7 (breast carcinoma); cells incubated 72 h): 4 µM; IC50 (LN-229 (glioblastoma); cells incubated 72 h): 14 µM; IC50 (HT-29 (colon carcinoma); cells incubated 72 h): < 2 µM
C=C(CNCCO)[C@@H]1CC[C@]2(CO)CC[C@]3(C)[C@H](CC[C@@H]4[C@@]5(C)CCC(N)C(C)(C)[C@@H]5CC[C@]43C)[C@@H]12 (some centres unmarked) [Compound 24bb] | – | – | 6 | 5 | IC50 (A-375 (melanoma); [1]): 5 µM; IC50 (MCF-7 (breast carcinoma); [3]): 2 µM; IC50 (LN-229 (glioblastoma); [4]): 12 µM; IC50 (HT-29 (colon carcinoma); [5]): < 2 µM
C=C(C(=O)O)[C@@H]1CC[C@]2(CO)CC[C@]3(C)[C@H](CC[C@@H]4[C@@]5(C)CC[C@H](O)C(C)(C)[C@@H]5CC[C@]43C)[C@@H]12 [Compound 15] | – | – | > 75 | > 75 | –
C=C(CO)[C@@H]1CC[C@]2(COC(C)=O)CC[C@]3(C)[C@H](CC[C@@H]4[C@@]5(C)CCC(=O)C(C)(C)[C@@H]5CC[C@]43C)[C@@H]12 [Compound 12] | – | – | > 45 | > 45 | –
C=C(COC(C)=O)[C@@H]1CC[C@]2(C(=O)O)CC[C@]3(C)[C@H](CC[C@@H]4[C@@]5(C)CC[C@H](O)C(C)(C)[C@@H]5CC[C@]43C)[C@@H]12 [Compound 19a] | – | – | > 45 | > 45 | –
C=C(COC(C)=O)[C@@H]1CC[C@]2(C(=O)O)CC[C@]3(C)[C@H](CC[C@@H]4[C@@]5(C)CCC(=O)C(C)(C)[C@@H]5CC[C@]43C)[C@@H]12 [Compound 17a, 30-O-acetyl betulonic acid] | – | – | > 45 | > 45 | –
C=C(CNCCO)[C@@H]1CC[C@]2(COC3CCCCO3)CC[C@]3(C)[C@H](CC[C@@H]4[C@@]5(C)CCC(N)C(C)(C)[C@@H]5CC[C@]43C)[C@@H]12 (some centres unmarked) [Compound 24ba] | – | – | 5 | 5 | IC50 (A-375 (melanoma); [1]): 3 µM; IC50 (MCF-7 (breast carcinoma); [3]): 3 µM; IC50 (LN-229 (glioblastoma); [4]): 15 µM; IC50 (HT-29 (colon carcinoma); [5]): 2 µM
CC(CNCCO)[C@@H]1CC[C@]2(COC3CCCCO3)CC[C@]3(C)[C@H](CC[C@@H]4[C@@]5(C)CCC(O)C(C)(C)[C@@H]5CC[C@]43C)[C@@H]12 (some centres unmarked) [Compound 36a] | – | – | 4 | 4 | IC50 (A-375 (melanoma); [1]): 5 µM; IC50 (MCF-7 (breast carcinoma); [3]): 7 µM; IC50 (LN-229 (glioblastoma); [4]): 28 µM; IC50 (HT-29 (colon carcinoma); [5]): 5 µM
C=C(C=O)[C@@H]1CC[C@]2(C=O)CC[C@]3(C)[C@H](CC[C@@H]4[C@@]5(C)CCC(=O)C(C)(C)[C@@H]5CC[C@]43C)[C@@H]12 [Compound 20] | – | – | – | 34 | –
C=C(CNCCO)[C@@H]1CC[C@]2(CO)CC[C@]3(C)[C@H](CC[C@@H]4[C@@]5(C)CCC(NCCOC)C(C)(C)[C@@H]5CC[C@]43C)[C@@H]12 (some centres unmarked) [Compound 24bc] | 8 | 5 | – | – | IC50 (A-375 (melanoma); cells incubated 72 h): 4 µM; IC50 (MCF-7 (breast carcinoma); cells incubated 72 h): 11 µM; IC50 (LN-229 (glioblastoma); cells incubated 72 h): 28 µM; IC50 (HT-29 (colon carcinoma); cells incubated 72 h): 2 µM
C=C(CNCCO)[C@@H]1CC[C@]2(COC3CCCCO3)CC[C@]3(C)[C@H](CC[C@@H]4[C@@]5(C)CCC(O)C(C)(C)[C@@H]5CC[C@]43C)[C@@H]12 (some centres unmarked) [Compound 23a] | – | – | 16 | 54 | –
C=C(CNCCO)[C@@H]1CC[C@]2(CO)CC[C@]3(C)[C@H](CC[C@@H]4[C@@]5(C)CCC(NC6CCC(O)CC6)C(C)(C)[C@@H]5CC[C@]43C)[C@@H]12 (some centres unmarked) [Compound 24bj] | 5 | 5 | – | – | IC50 (A-375 (melanoma); cells incubated 72 h): 7 µM; IC50 (MCF-7 (breast carcinoma); cells incubated 72 h): 4 µM; IC50 (LN-229 (glioblastoma); cells incubated 72 h): 16 µM; IC50 (HT-29 (colon carcinoma); cells incubated 72 h): 2 µM
C=C(CO)[C@@H]1CC[C@]2(COC3CCCCO3)CC[C@]3(C)[C@H](CC[C@@H]4[C@@]5(C)CCC(NC6CCC(O)CC6)C(C)(C)[C@@H]5CC[C@]43C)[C@@H]12 (some centres unmarked) [Compound 24ak] | 38 | 38 | – | – | –
C=C(COC(C)=O)[C@@H]1CC[C@]2(CO)CC[C@]3(C)[C@H](CC[C@@H]4[C@@]5(C)CCC(=O)C(C)(C)[C@@H]5CC[C@]43C)[C@@H]12 [Compound 16] | – | – | 43 | > 45 | –
